# Molecular target: T1, OBP49a (Drosophila melanogaster, UniProt A1Z947)
# T1 sequence (A1Z947 23-212): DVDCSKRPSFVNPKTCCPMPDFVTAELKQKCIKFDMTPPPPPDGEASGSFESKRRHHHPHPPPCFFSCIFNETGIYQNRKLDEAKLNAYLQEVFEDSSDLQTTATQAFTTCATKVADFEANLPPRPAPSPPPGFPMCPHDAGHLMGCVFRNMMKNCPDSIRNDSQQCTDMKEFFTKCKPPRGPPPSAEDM
# Test: surface plasmon resonance
# Format: binding
# Details: pH 7.4; 25 °C; HBS-P (10 mM HEPES, 150 mM NaCl, 0.005 % Surfactant P20); dose-dependent
row,Structure (SMILES),"surface plasmon resonance (BIAcore 3000, OBP49a on CM5 chip)"
1,COc1ccc2cc3[n+](cc2c1OC)CCc1cc2c(cc1-3)OCO2 [berberine],"berberine, denatonium and quinine bound to OBP49a in a dosedependent manner"
2,CC[N+](CC)(CC(=O)Nc1c(C)cccc1C)Cc1ccccc1 [denatonium],"berberine, denatonium and quinine bound to OBP49a in a dosedependent manner"
3,C=C[C@H]1CN2CC[C@H]1C[C@H]2[C@H](O)c1ccnc2ccc(OC)cc12 [quinine],"berberine, denatonium and quinine bound to OBP49a in a dosedependent manner"

# Source: PMC3753695 (Neuron, 2013)
